Test results published in PMC11702208 (RSC Advances, 2025).
“And” between values parts separate entries of the source, which are not always exact repeats. Identical values can stand only once.

Experiments:
NCI-H322M = experiment: NCI cytotoxicity screen; type: cell-based, human; settings: 10.0 μM one dose
EKVX = experiment: NCI cytotoxicity screen; type: cell-based, human; settings: 10.0 μM one dose
U251 = experiment: NCI cytotoxicity screen; type: cell-based, human; settings: 10.0 μM one dose; U-251
UO-31 = experiment: NCI cytotoxicity screen; type: cell-based, human; settings: 10.0 μM one dose
CAKI-1 = experiment: NCI cytotoxicity screen; type: cell-based, human; settings: 10.0 μM one dose
SF-268 = experiment: NCI cytotoxicity screen; type: cell-based, human; settings: 10.0 μM one dose
SNB-75 = experiment: NCI cytotoxicity screen; type: cell-based, human; settings: 10.0 μM one dose
HOP-92 = experiment: NCI cytotoxicity screen; type: cell-based, human; settings: 10.0 μM one dose
MDA-MB-231/ATCC = experiment: NCI cytotoxicity screen; type: cell-based, human; settings: 10.0 μM one dose; MDA-MB-231/ATCC
NCI-H522 = experiment: NCI cytotoxicity screen; type: cell-based, human; settings: 10.0 μM one dose
HS 578T = experiment: NCI cytotoxicity screen; type: cell-based, human; settings: 10.0 μM one dose; HS-578T
UACC-62 = experiment: NCI cytotoxicity screen; type: cell-based, human; settings: 10.0 μM one dose
MCF7 = experiment: NCI cytotoxicity screen; type: cell-based, human; settings: 10.0 μM one dose; MCF-7
HER2 = HER2 (Homo sapiens, UniProt P04626); experiment: HER2 tyrosine kinase assay; type: biochemical; settings: IC50 HER2 inhibition
CDK9 = CDK9 (Homo sapiens, UniProt P50750); experiment: biochemical; settings: IC50 CDK9 inhibition
EGFR = EGFR (Homo sapiens, UniProt P00533); experiment: biochemical; settings: IC50 EGFR inhibition
COX-2 = target: T1, COX-2 (Ovis aries, UniProt P79208); experiment: Colorimetric COX; type: biochemical, ovine
T1 sequence (P79208 17-603): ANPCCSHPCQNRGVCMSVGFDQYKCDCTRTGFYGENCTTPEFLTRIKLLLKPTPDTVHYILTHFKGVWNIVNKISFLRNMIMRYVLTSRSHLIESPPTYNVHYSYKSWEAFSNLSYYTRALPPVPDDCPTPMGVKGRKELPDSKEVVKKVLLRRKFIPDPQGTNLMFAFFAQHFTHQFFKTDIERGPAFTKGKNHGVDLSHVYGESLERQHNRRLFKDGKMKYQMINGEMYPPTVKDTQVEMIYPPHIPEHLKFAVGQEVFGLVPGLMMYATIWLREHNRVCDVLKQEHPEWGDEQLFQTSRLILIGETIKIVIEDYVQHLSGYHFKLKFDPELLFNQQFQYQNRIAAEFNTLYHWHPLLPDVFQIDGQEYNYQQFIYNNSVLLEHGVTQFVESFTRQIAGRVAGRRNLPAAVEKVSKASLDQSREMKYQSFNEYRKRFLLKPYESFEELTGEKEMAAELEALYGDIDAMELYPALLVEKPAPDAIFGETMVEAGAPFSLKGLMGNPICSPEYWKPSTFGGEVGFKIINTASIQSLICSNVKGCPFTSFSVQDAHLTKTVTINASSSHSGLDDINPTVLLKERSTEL

59 cancer cell lines = experiment: NCI cytotoxicity screen, full panel; type: cell-based, human; settings: 10.0 μM one dose; 59 cell lines
RPMI-8226 = experiment: NCI cytotoxicity screen; type: cell-based, human; settings: 10.0 μM one dose
SN12C = experiment: NCI cytotoxicity screen; type: cell-based, human; settings: 10.0 μM one dose; SN-12C
MDA-MB-468 = experiment: NCI cytotoxicity screen; type: cell-based, human; settings: 10.0 μM one dose
SF-539 = experiment: NCI cytotoxicity screen; type: cell-based, human; settings: 10.0 μM one dose
NCI-H226 = experiment: NCI cytotoxicity screen; type: cell-based, human; settings: 10.0 μM one dose
RXF 393 = experiment: NCI cytotoxicity screen; type: cell-based, human; settings: 10.0 μM one dose
T-47D = experiment: NCI cytotoxicity screen; type: cell-based, human; settings: 10.0 μM one dose; T-47D
SNB-19 = experiment: NCI cytotoxicity screen; type: cell-based, human; settings: 10.0 μM one dose
OVCAR-5 = experiment: NCI cytotoxicity screen; type: cell-based, human; settings: 10.0 μM one dose; OVCAR-5
HCT-116 = experiment: NCI cytotoxicity screen; type: cell-based, human; settings: 10.0 μM one dose
SK-MEL-5 = experiment: NCI cytotoxicity screen; type: cell-based, human; settings: 10.0 μM one dose
BT-549 = experiment: NCI cytotoxicity screen; type: cell-based, human; settings: 10.0 μM one dose
NCI-H23 = experiment: NCI cytotoxicity screen; type: cell-based, human; settings: 10.0 μM one dose
SR = experiment: NCI cytotoxicity screen; type: cell-based, human; settings: 10.0 μM one dose
MALME-3M = experiment: NCI cytotoxicity screen; type: cell-based, human; settings: 10.0 μM one dose; MALME-3M
KM12 = experiment: NCI cytotoxicity screen; type: cell-based, human; settings: 10.0 μM one dose; KM-12
M14 = experiment: NCI cytotoxicity screen; type: cell-based, human; settings: 10.0 μM one dose
MDA-MB-435 = experiment: NCI cytotoxicity screen; type: cell-based, human; settings: 10.0 μM one dose
LOX IMVI = experiment: NCI cytotoxicity screen; type: cell-based, human; settings: 10.0 μM one dose
786-0 = experiment: NCI cytotoxicity screen; type: cell-based, human; settings: 10.0 μM one dose

HER2, sequence (P04626 23-1255): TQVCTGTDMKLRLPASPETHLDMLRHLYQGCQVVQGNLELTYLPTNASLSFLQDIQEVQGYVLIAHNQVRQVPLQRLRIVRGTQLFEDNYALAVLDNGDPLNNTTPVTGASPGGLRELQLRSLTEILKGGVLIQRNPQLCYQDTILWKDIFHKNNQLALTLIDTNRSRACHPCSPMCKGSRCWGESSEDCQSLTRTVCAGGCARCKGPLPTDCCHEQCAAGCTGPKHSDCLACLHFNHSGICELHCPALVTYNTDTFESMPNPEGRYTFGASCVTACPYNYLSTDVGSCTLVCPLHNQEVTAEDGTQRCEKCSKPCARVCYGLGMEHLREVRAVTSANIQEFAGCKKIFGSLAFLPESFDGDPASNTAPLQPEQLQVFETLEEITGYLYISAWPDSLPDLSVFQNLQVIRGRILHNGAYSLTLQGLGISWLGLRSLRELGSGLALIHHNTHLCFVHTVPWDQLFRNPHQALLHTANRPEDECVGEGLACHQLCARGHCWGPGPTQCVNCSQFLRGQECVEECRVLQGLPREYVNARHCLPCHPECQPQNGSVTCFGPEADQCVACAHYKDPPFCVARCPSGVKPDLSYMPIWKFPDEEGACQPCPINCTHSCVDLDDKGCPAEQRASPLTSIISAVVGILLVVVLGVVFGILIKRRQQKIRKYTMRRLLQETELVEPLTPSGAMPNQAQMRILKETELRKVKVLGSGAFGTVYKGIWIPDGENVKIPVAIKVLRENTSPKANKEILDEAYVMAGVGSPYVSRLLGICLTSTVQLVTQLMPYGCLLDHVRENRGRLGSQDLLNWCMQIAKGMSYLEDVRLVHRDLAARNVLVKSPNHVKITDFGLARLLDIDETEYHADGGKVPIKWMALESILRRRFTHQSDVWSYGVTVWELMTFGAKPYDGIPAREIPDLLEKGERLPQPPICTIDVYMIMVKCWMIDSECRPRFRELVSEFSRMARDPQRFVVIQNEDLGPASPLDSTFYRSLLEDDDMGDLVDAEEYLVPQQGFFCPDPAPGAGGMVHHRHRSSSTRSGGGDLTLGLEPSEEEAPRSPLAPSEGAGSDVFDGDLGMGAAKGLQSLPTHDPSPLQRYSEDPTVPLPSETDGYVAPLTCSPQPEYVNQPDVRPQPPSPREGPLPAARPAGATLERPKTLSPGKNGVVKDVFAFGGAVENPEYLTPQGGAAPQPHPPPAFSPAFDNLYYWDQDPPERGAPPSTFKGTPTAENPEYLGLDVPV
EGFR, sequence (P00533 25-1210): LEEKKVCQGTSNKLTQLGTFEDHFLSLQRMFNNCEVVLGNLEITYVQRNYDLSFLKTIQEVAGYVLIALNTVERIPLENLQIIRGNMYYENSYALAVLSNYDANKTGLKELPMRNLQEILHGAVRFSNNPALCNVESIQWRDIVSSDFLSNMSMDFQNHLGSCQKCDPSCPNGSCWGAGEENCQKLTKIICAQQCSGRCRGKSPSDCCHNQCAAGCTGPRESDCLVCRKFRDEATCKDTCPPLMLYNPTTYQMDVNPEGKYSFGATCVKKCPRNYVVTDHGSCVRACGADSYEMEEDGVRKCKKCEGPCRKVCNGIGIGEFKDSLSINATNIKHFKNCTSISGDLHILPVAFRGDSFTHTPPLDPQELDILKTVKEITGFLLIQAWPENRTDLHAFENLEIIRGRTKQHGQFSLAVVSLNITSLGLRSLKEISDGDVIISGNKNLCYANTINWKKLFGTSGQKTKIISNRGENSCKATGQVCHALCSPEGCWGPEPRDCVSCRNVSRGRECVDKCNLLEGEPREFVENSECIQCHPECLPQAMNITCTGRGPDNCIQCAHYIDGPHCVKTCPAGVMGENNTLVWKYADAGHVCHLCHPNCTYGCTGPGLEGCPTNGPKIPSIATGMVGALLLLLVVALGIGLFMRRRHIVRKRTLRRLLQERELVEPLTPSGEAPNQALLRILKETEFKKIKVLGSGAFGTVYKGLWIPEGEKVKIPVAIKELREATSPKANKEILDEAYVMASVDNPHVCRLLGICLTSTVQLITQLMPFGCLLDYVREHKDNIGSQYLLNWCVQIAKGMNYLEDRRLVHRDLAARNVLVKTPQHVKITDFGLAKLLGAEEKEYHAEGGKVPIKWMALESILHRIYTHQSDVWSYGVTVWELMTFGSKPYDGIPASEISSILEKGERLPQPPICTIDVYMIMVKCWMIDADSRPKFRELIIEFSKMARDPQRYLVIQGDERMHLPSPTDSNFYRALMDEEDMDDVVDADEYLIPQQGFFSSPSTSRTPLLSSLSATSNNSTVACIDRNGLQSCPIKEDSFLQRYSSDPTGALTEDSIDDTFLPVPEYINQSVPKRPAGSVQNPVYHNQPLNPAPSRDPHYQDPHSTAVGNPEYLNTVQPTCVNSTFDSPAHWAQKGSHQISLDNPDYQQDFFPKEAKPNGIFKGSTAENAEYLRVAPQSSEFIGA
CDK9, sequence (P50750 whole entry): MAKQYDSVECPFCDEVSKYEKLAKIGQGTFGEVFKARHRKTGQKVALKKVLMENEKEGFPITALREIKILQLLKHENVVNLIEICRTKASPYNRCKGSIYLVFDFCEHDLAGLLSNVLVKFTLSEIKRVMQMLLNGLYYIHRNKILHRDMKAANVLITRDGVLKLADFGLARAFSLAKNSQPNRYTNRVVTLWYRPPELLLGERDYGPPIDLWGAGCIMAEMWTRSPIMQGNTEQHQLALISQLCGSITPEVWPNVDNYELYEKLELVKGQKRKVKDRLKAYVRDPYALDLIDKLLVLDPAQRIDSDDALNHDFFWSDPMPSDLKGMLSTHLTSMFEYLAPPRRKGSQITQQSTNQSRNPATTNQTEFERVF
CDK9, sequence (O60563 whole entry partner): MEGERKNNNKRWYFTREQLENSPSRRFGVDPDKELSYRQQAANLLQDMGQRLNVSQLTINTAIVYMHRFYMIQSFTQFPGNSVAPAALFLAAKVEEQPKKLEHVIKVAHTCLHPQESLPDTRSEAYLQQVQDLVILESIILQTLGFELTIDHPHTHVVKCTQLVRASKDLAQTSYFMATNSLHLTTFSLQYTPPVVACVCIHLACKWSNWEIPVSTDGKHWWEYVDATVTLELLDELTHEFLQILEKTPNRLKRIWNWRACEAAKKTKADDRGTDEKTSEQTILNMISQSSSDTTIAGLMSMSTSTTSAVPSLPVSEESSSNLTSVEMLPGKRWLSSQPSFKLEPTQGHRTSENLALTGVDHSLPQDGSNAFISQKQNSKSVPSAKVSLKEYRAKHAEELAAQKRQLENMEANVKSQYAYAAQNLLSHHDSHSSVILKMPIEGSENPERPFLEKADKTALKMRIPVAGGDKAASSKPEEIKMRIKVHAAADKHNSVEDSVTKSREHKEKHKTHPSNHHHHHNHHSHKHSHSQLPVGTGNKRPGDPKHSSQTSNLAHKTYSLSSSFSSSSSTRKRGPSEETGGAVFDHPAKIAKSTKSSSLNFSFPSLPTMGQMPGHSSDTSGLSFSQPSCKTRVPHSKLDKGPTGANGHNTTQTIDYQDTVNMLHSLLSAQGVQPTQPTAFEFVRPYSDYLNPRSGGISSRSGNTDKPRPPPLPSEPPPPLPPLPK

| Molecule | GI % (EKVX) | GI % (U251) | GI % (UO-31) | GI % (CAKI-1) | GI % (SF-268) | GI % (SNB-75) | GI % (MDA-MB-231/ATCC) | GI % (NCI-H522) | GI % (HS 578T) | GI % (MCF7) | MG% (mean growth percent) (59 cancer cell lines) | GI % (MDA-MB-468) | GI % (SF-539) | GI % (RXF 393) | GI % (T-47D) | other results |
| --- | --- | --- | --- | --- | --- | --- | --- | --- | --- | --- | --- | --- | --- | --- | --- | --- |
| 4-((4-Oxo-2-((2-oxo-2-(2-(1-(p-tolyl)ethylidene)hydrazineyl)ethyl)thio)quinazolin-3(4H)-yl)methyl)benzenesulfonamide [Compound 10] | 10% | 15% | 20% | 16% | 14% |  |  |  |  |  |  |  |  |  |  | GI % (NCI-H322M): 14% |
| NS(=O)(=O)c1ccc(Cn2c(=S)[nH]c3ccccc3c2=O)cc1 [Compound 1, 4-((4-Oxo-2-thioxo-1,4-dihydroquinazolin-3(2H)-yl)methyl)benzenesulfonamide] |  |  | 19% | 11% |  | 23% |  |  |  |  |  |  |  |  |  | GI % (HOP-92): 14% |
| CCOC(=O)CSc1nc2ccccc2c(=O)n1Cc1ccc(S(N)(=O)=O)cc1 [Compound 2, Ethyl 2-((4-oxo-3-(4-sulfamoylbenzyl)-3,4-dihydroquinazolin-2-yl)thio)acetate] |  |  | 16% |  |  | 15% |  |  |  |  |  |  |  |  |  |  |
| NS(=O)(=O)c1ccc(Cn2c(SCC(=O)NN=Cc3ccccc3)nc3ccccc3c2=O)cc1 [Compound 4, 4-((2-((2-(2-Benzylidenehydrazineyl)-2-oxoethyl)thio)-4-oxoquinazolin-3(4H)-yl)methyl)benzenesulfonamide] | 14% |  | 21% | 16% |  | 13% | 12% | 18% | 11% | 14% |  |  |  |  |  | GI % (UACC-62): 11% |
| COc1cccc(C=NNC(=O)CSc2nc3ccccc3c(=O)n2Cc2ccc(S(N)(=O)=O)cc2)c1 [Compound 7, 4-((2-((2-(2-(3-Methoxybenzylidene)hydrazineyl)-2-oxoethyl)thio)-4-oxoquinazolin-3(4H)-yl)methyl)benzenesulfonamide] |  |  |  |  |  |  |  |  |  |  | 89.4% and 89.35% |  |  |  |  | IC50 (HER2): 387 nM; IC50 (CDK9): 155 ± 3.81 nM; IC50 (EGFR): 594 ± 14.5 nM; IC50 (COX-2): 50500 ± 1060 nM |
| COc1cc(C=NNC(=O)CSc2nc3ccccc3c(=O)n2Cc2ccc(S(N)(=O)=O)cc2)cc(OC)c1OC [Compound 8, 4-((4-Oxo-2-((2-oxo-2-(2-(3,4,5-trimethoxybenzylidene)hydrazineyl)ethyl)thio)quinazolin-3(4H)-yl)methyl)benzenesulfonamide] | 15% |  | 25% | 14% | 15% |  | 15% | 48% | 15% | 11% | 96.8% and 96.77% | 19% | 12% | 10% |  | GI % (RPMI-8226): 13%; GI % (SN12C): 10%; GI % (NCI-H322M): 15%; GI % (NCI-H226): 11% |
| COc1cccc(C(C)=NNC(=O)CSc2nc3ccccc3c(=O)n2Cc2ccc(S(N)(=O)=O)cc2)c1 [Compound 11, 4-((2-((2-(2-(1-(3-Methoxyphenyl)ethylidene)hydrazineyl)-2-oxoethyl)thio)-4-oxoquinazolin-3(4H)-yl)methyl)benzenesulfonamide] |  | 20% | 21% | 21% | 25% | 22% | 25% | 52% | 19% | 10% | 94.5% and 94.54% | 19% | 28% | 16% | 11% | GI % (SNB-19): 15%; GI % (OVCAR-5): 12%; GI % (HCT-116): 20%; GI % (SK-MEL-5): 10% |
| COc1cc(OC)cc(C(C)=NNC(=O)CSc2nc3ccccc3c(=O)n2Cc2ccc(S(N)(=O)=O)cc2)c1 [Compound 12, 4-((2-((2-(2-(1-(3,5-Dimethoxyphenyl)ethylidene)hydrazineyl)-2-oxoethyl)thio)-4-oxoquinazolin-3(4H)-yl)methyl)benzenesulfonamide] |  | 26% |  | 16% | 64% | 39% | 28% | 62% | 11% |  | 88.4% | 27% | 64% | 30% | 62% | IC50 (HER2): 111 nM; GI % (BT-549): 57%; GI % (NCI-H23): 17%; IC50 (CDK9): 320 ± 7.85 nM; GI % (SNB-19): 49%; GI % (SR): 28%; GI % (MALME-3M): 30%; IC50 (EGFR): 492 ± 12.1 nM; GI % (KM12): 30%; GI % (OVCAR-5): 14%; IC50 (COX-2): 21300 ± 440 nM; GI % (M14): 11%; GI % (HCT-116): 17%; GI % (SK-MEL-5): 32%; GI % (MDA-MB-435): 30%; GI % (UACC-62): 17%; GI % (LOX IMVI): 20%; GI % (786-0): 15% |
| COc1cc(C(C)=NNC(=O)CSc2nc3ccccc3c(=O)n2Cc2ccc(S(N)(=O)=O)cc2)cc(OC)c1OC [Compound 13, 4-((4-Oxo-2-((2-oxo-2-(2-(1-(3,4,5-trimethoxyphenyl)ethylidene)hydrazineyl)ethyl)thio)quinazolin-3(4H)-yl)methyl)benzenesulfonamide] |  |  | 24% | 15% |  | 13% | 11% |  |  | 11% | 97.44% | 16% |  |  | 15% | GI % (SR): 12% |
